Read-outs that look alike come from different tables or passages of the source.
Key:
Format in all cases: cell-based
[1] = Cytotoxicity in mock-infected HeLa cells (tetrazolium-based colorimetric assay); details: human
Excerpt: (§1) The percent protection against cytopathology caused by viruses (antiviral activity or IC50) achieved by tested compounds and their cytotoxicity (CC50) were both calculated from dose-response curves. The selectivity of the antiviral effect is represented by the selectivity index (SI), calculated by dividing the CC50 (cytotoxic dose for 50% of the cells) by the IC50 (antiviral activity for 50% of the cells).
(§2) Automated tetrazolium-based colorimetric assays were used for determination of IC50 and CC50 of test compounds. Flat-bottom, 96-well plastic microtiter trays were filled with 180 μl of Eagle's Basal Medium, supplemented with 5% FCS (0% for FLU) and mM Hepes buffer. Subsequently, stock solutions (7.8× final test concentration) of compounds were added in 45 μl volumes to a series of triplicate wells so as to allow simultaneous evaluation of their effects on virus- and mock-infected cells. Five five-fold dilutions were made directly in the microtiter trays using a robot system. Untreated virus controls, and HeLa cell controls were included in each test. Approximately 100 TCID50 of Respiratory Syncytial Virus was added to two of the three rows in a volume of 50 μl. The same volume of medium was added to the third row to measure the cytotoxicity of the compounds at the same concentrations as those used to measure the antiviral activity. After two hours of incubation, a suspension (4×10^5 cells/ml) of HeLa cells was added to all wells in a volume of 50 μl. The cultures were incubated at 37° C. in a 5% CO2 atmosphere. Seven days after infection the cytotoxicity and the antiviral activity was examined spectrophotometrically. To each well of the microtiter tray, 25 μl of a solution of MTT (3-(4,5-dimethylthiazol-2-yl)-2,5-diphenyltetrazolium bromide) was added. The trays were further incubated at 37° C. for 2 hours, after which the medium was removed from each cup. Solubilization of the formazan crystals was achieved by adding 100 μl 2-propanol. Complete dissolution of the formazan crystals were obtained after the trays have been placed on a plate shaker for 10 min. Finally, the absorbances were read in an eight-channel computer-controlled photometer (Multiskan MCC, Flow Laboratories) at two wavelengths (540 and 690 nm). The absorbance measured at 690 nm was automatically subtracted from the absorbance at 540 nm, so as to eliminate the effects of non-specific absorption.

[2] = tested on: Respiratory Syncytial Virus; test: In vitro screening for activity against Respiratory Syncytial Virus (tetrazolium-based colorimetric assay, protection against cytopathology in HeLa cells); details: for SI (selectivity index, CC50 divided by IC50): CC50 (HeLa) / IC50 (RSV); for IC50: read-out: IC50 (antiviral activity)
Excerpt: as §1, §2

HeLa cells = test: Cytotoxicity in mock-infected HeLa cells (tetrazolium-based colorimetric assay); details: human, 7 days
Excerpt: as §1, §2

[3] = CC50 (cytotoxic dose for 50% of the cells)
[4] = mock-infected HeLa cells, MTT, seven days, read-out: CC50 (cytotoxic dose for 50% of the cells)
[5] = human respiratory syncytial virus, HeLa, 168 h

| SMILES | SI (selectivity index, CC50 divided by IC50) [2] | CC50 at 7 days [1, 4] | IC50 [2, 5] | also measured |
| --- | --- | --- | --- | --- |
| CCOC(c1cccc(C)n1)n1c(NC2CCN(CC(N)C(C)C)CC2)nc2ccccc21 [Compound 67, [(A)(S)]-N-[1-(2-amino-3-methylbutyl)-4-piperidinyl]-1-[ethoxy(6-methyl-2-pyridinyl)methyl]-1H-benzimidazol-2-amine monohydrate] | – | – | – | CC50 at 7 days [1, 3]: 63400 nM; SI (selectivity index, CC50 divided by IC50) ([2]; monohydrate): 15849; IC50 ([2]; RSV approx. 100 TCID50, HeLa cells, MTT read seven days after infection, monohydrate): 4 nM |
| CCOC(c1cccc(Br)n1)n1c(NC2CCN(CC(N)C(C)C)CC2)nc2ccccc21 (racemic) [Compound 10, (±)-N-[1-(2-amino-3-methylbutyl)-4-piperidinyl]-1-[(6-bromo-2-pyridinyl)-ethoxymethyl]-1H-benzimidazol-2-amine] | 63096 | – | – | CC50 at 7 days [1, 3]: 37900 nM; IC50 ([2]; human respiratory syncytial virus, HeLa, 168 h, RSV approx. 100 TCID50, HeLa cells, MTT read seven days after infection): 0.6 nM |
| CCOC(c1nc(C)ccc1OCc1ccccc1)n1c(NC2CCN(CCN)CC2)nc2ccccc21.Cl.Cl.Cl.O.O (racemic) [Compound 11, (±)-N-[1-(2-aminoethyl)-4-piperidinyl]-1-[ethoxy[6-methyl-3-(phenylmethoxy)-2-pyridinyl]-methyl]-1H-benzimidazol-2-amine trihydrochloride dihydrate] | 79 | 9950 nM | 126 nM | – |
| CCOC(c1cccc(Br)n1)n1c(NC2CCN(CC(N)C(C)C)CC2)nc2c(C)cccc21 (racemic) [Compound 87, monohydrate] | 31623 | 10100 nM | 0.32 nM | – |
| Cc1cccc(C(OCCO)n2c(NC3CCN(CCN)CC3)nc3ccccc32)n1 (racemic) [Compound 13, monohydrate] | >7943 | > 100000 nM | 12.6 nM | – |
| CCOC(c1cccc(C)n1)n1c(NC2CCN(CC(N)C(C)C)CC2)nc2ccccc21 (stereo not drawn) [Compound 58] | 1585 | – | – | CC50 (HeLa cells): 79400 nM; IC50 ([2]; RSV approx. 100 TCID50, HeLa cells, MTT read seven days after infection): 50.1 nM |
| COCCOC(c1cccc(C)n1)n1c(NC2CCN(CC(N)C(C)C)CC2)nc2c(C)cc(Cl)cc21.Cl.Cl.Cl.O.O.O (stereo not drawn) [Compound 88, N-[1-(2-amino-3-methylbutyl)-4-piperidinyl]-6-chloro-1-[(2-methoxyethoxy)(6-methyl-2-pyridinyl)methyl]-4-methyl-1H-benzimidazol-2-amine trihydrochloride trihydrate] | 10000 | 20000 nM | 2 nM | – |

Reference: patent publication US7528149B2 (Janssen Pharmaceutica N.V., priority 1999, dated 2009)
